Assay results reported in patent publication US9617283B2, “Bicyclic heterocycle compounds and their uses in therapy” (ASTEX THERAPEUTICS LIMITED, priority 2012, dated 2017).
Structures can show the parent of a compound that is named as a salt. Where two headings read alike, the source gives them in different places.

Assays:
[1] = target: T1, BIR3 domain of human XIAP (residues 252-350) (Homo sapiens, UniProt P98170); assay: XIAP in vitro competitive displacement binding assay (fluorescence polarization); conditions: 1 h, percent inhibition (PI) at 0.04 μM; read-out: Xiap IC50 or PI μM
T1 construct: BIR3 domain of human XIAP (residues 252-350); His-tag (cleaved yes); made in house; host or cells: Escherichia coli

[2] = system: EVSA-T (human breast carcinoma); assay: Anti-proliferative activity, Alamar Blue assay, EVSA-T; format: cell-based
Experimental: Anti-Proliferative Activity
The method is based on the ability of viable cells to reduce resazurin to its fluorescent product resorufin. For each proliferation assay cells are plated onto 96 well plates and allowed to recover for 16 hours prior to the addition of inhibitor compounds (in 0.1% DMSO v/v) for a further 72 hours. […] The anti-proliferative activities of compounds of the invention can be determined by measuring the ability of the compounds to inhibit growth in 3 cancer cell lines: • EVSA-T (human breast carcinoma) DSMZ cat. no.

[3] = Homo sapiens, EVSA-T, 72 h, EVSA-T cell line, 72 hours, Alamar Blue; read-out: EVSA-T prolif
[4] = Homo sapiens, EVSA-T; read-out: EC50 in EVSA-T cell line assays
[5] = Homo sapiens, EVSA-T, read-out: EC50 in EVSA-T cell line assays

T1 sequence (P98170 252-350): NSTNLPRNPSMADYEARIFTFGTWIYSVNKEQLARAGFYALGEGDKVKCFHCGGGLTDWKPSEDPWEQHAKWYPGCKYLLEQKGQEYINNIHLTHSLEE

Row | Compound | inhibition at 0.04 µM [1] | EC50 [2, 3] | EC50 [2, 4] | EC50 [2, 5] | EVSA-T prolif μM ([2]; EVSA-T cell line, % at 0.001 μM)
1 | CCCC(F)(F)c1cc2c(cn1)C(C)(C)CN2C(=O)CN1C[C@@H](C)NC[C@@H]1CN1Cc2ccccc2C1=O [Example 27, 2-{[(2R,5R)-1-{2-[6-(1,1-Difluorobutyl)-3,3-dimethyl-1H,2H,3H-pyrrolo[3,2-c]pyridin-1-yl]-2-oxoethyl}-5-methylpiperazin-2-yl]methyl}-2,3-dihydro-1H-isoindol-1-one, dihydrochloride] | 75% | 5.2 nM | < 1000 nM | – | –
2 | C[C@@H]1CN(CC(=O)N2CC(C)(C)c3ncc(Cc4ccc(F)cc4F)cc32)[C@@H](CN2C(=O)CO[C@@H](C)[C@H]2C)CN1 [Example 100, (5R,6S)-4-{[(2R,5R)-1-(2-{6-[(2,4-Difluorophenyl)methyl]-3,3-dimethyl-1H,2H,3H-pyrrolo[3,2-b]pyridin-1-yl}-2-oxoethyl)-5-methylpiperazin-2-yl]methyl}-5,6-dimethylmorpholin-3-one dihydrochloride] | 41% | 1.9 nM | < 1000 nM | – | –
3 | C[C@@H]1CN(CC(=O)N2CC(C)(C)c3ncc([C@H](O)c4ccc(F)cc4)cc32)[C@@H](CN2Cc3ccccc3C2=O)CN1 [Example 84, 2-{[(2R,5R)-1-(2-{6-[(R)-(4-Fluorophenyl)(hydroxy)methyl]-3,3-dimethyl-1H,2H,3H-pyrrolo[3,2-b]pyridin-1-yl}-2-oxoethyl)-5-methylpiperazin-2-yl]methyl}-2,3-dihydro-1H-isoindol-1-one dihydrochloride] | 51% | 150 nM | < 1000 nM | – | –
4 | C[C@@H]1CC(=O)N(C[C@H]2CN[C@H](C)CN2CC(=O)N2CC(C)(C)c3ncc(Cc4ccc(F)cc4F)cc32)C1 [Example 70, (4R)-1-{[(2R,5R)-1-(2-{6-[(2,4-Difluorophenyl)methyl]-3,3-dimethyl-1H,2H,3H-pyrrolo[3,2-b]pyridin-1-yl}-2-oxoethyl)-5-methylpiperazin-2-yl]methyl}-4-methylpyrrolidin-2-one dihydrochloride] | 55% | 3.2 nM | < 1000 nM | – | –
5 | CCCC(F)(F)c1cc2c(nn1)C(C)(C)CN2C(=O)CN1C[C@@H](C)NC[C@@H]1CN1Cc2ccc(F)cc2C1=O [Example 99, 2-{[(2R,5R)-1-{2-[3-(1,1-Difluorobutyl)-7,7-dimethyl-5H,6H,7H-pyrrolo[3,2-c]pyridazin-5-yl]-2-oxoethyl}-5-methylpiperazin-2-yl]methyl}-6-fluoro-2,3-dihydro-1H-isoindol-1-one dihydrochloride] | 65% | 6.6 nM | < 1000 nM | – | –
6 | C[C@@H]1CN(CC(=O)N2CC(C)(C)c3ncc(Cc4ccc(F)cc4)cc32)[C@@H](CN2CCCCC2=O)CN1 [Example 21, 1-{[(2R,5R)-1-(2-{6-[(4-Fluorophenyl)methyl]-3,3-dimethyl-1H,2H,3H-pyrrolo[3,2-b]pyridin-1-yl}-2-oxoethyl)-5-methylpiperazin-2-yl]methyl}piperidin-2-one, dihydrochloride] | 44% | 2.1 nM | – | < 1000 nM | –
7 | C[C@@H]1CN(CC(=O)N2CC(C)(C)c3cnc(Cc4ccc(F)cc4)cc32)[C@@H](CN2C[C@H](C)N(C)CC2=O)CN1 [Example 107, (5S)-1-{[(2R,5R)-1-(2-{6-[(4-Fluorophenyl)methyl]-3,3-dimethyl-1H,2H,3H-pyrrolo[3,2-c]pyridin-1-yl}-2-oxoethyl)-5-methylpiperazin-2-yl]methyl}-4,5-dimethylpiperazin-2-one dihydrochloride] | 67% | 11 nM | < 1000 nM | – | –
8 | CC1CC(=O)N(C[C@H]2CN[C@H](C)CN2CC(=O)N2CC(C)(C)c3ncc(Cc4ccc(F)cc4)cc32)C1 (stereo partly drawn) [Example 6, 1-{[(2R,5R)-1-(2-{6-[(4-Fluorophenyl)methyl]-3,3-dimethyl-1H,2H,3H-pyrrolo[3,2-b]pyridin-1-yl}-2-oxoethyl)-5-methylpiperazin-2-yl]methyl}-4-methylpyrrolidin-2-one dihydrochloride] | 48% | 1.1 nM | < 1000 nM | – | –
9 | C[C@@H]1CN(CC(=O)N2CC(C)(C)c3cnc(Cc4ccc(F)cc4)cc32)[C@@H](CN2Cc3ncccc3C2=O)CN1 [Example 20, 6-{[(2R,5R)-1-(2-{6-[(4-Fluorophenyl)methyl]-3,3-dimethyl-1H,2H,3H-pyrrolo[3,2-c]pyridin-1-yl}-2-oxoethyl)-5-methylpiperazin-2-yl]methyl}-5H,6H,7H-pyrrolo[3,4-b]pyridin-5-one, dihydrochloride] | 76% | – | – | < 1000 nM | 92% at
10 | C[C@@H]1CN(CC(=O)N2CC(C)(C)c3ncc(Cc4ccc(F)cc4F)cc32)[C@@H](CN2Cc3cc(O)ccc3C2=O)CN1 [Example 105, 2-{[(2R,5R)-1-(2-{6-[(2,4-Difluorophenyl)methyl]-3,3-dimethyl-1H,2H,3H-pyrrolo[3,2-b]pyridin-1-yl}-2-oxoethyl)-5-methylpiperazin-2-yl]methyl}-5-hydroxy-2,3-dihydro-1H-isoindol-1-one dihydrochloride] | 90% | 6.5 nM | < 1000 nM | – | –
11 | CC1=C(C)C(=O)N(C[C@H]2CN[C@H](C)CN2CC(=O)N2CC(C)(C)c3nnc(Cc4ccc(F)cc4)cc32)C1 [Example 51, 1-{[(2R,5R)-1-(2-{3-[(4-Fluorophenyl)methyl]-7,7-dimethyl-5H,6H,7H-pyrrolo[3,2-c]pyridazin-5-yl}-2-oxoethyl)-5-methylpiperazin-2-yl]methyl}-3,4-dimethyl-2,5-dihydro-1H-pyrrol-2-one L-lactate] | 48% | 4.9 nM | < 1000 nM | – | –
12 | CCCC(F)(F)c1cc2c(cn1)C(C)(C)CN2C(=O)CN1C[C@@H](C)NC[C@@H]1CN1C[C@H](C)CC1=O [Example 72, (4R)-1-{[(2R,5R)-1-{2-[6-(1,1-Difluorobutyl)-3,3-dimethyl-1H,2H,3H-pyrrolo[3,2-c]pyridin-1-yl]-2-oxoethyl}-5-methylpiperazin-2-yl]methyl}-4-methylpyrrolidin-2-one dihydrochloride] | 79% | 27 nM | < 1000 nM | – | –
13 | COc1ccc2c(c1)CN(C[C@H]1CN[C@H](C)CN1CC(=O)N1CC(C)(C)c3cnc(Cc4ccc(F)cc4)cc31)C2=O [Example 92, 2-{[(2R,5R)-1-(2-{6-[(4-Fluorophenyl)methyl]-3,3-dimethyl-1H,2H,3H-pyrrolo[3,2-c]pyridin-1-yl}-2-oxoethyl)-5-methylpiperazin-2-yl]methyl}-5-methoxy-2,3-dihydro-1H-isoindol-1-one dihydrochloride] | 93% | 0.26 nM | < 1000 nM | – | –
14 | C[C@@H]1CN(CC(=O)N2CC(C)(C)c3ncc(Cc4ccc(F)cc4F)cc32)[C@@H](CN2Cc3ccc(C#N)cc3C2=O)CN1 [Example 112, 2-{[(2R,5R)-1-(2-{6-[(2,4-Difluorophenyl)methyl]-3,3-dimethyl-1H,2H,3H-pyrrolo[3,2-b]pyridin-1-yl}-2-oxoethyl)-5-methylpiperazin-2-yl]methyl}-3-oxo-2,3-dihydro-1H-isoindole-5-carbonitrile dihydrochloride] | 85% | 2.7 nM | < 1000 nM | – | –
15 | C[C@@H]1CN(CC(=O)N2CC(C)(C)c3cnc(Cc4ccc(F)cc4)cc32)[C@@H](CN2Cc3ccccc3C2=O)CN1 [Example 60, 2-{[(2R,5R)-1-(2-{6-[(4-Fluorophenyl)methyl]-3,3-dimethyl-1H,2H,3H-pyrrolo[3,2-c]pyridin-1-yl}-2-oxoethyl)-5-methylpiperazin-2-yl]methyl}-2,3-dihydro-1H-isoindol-1-one dihydrochloride] | 94% | 0.29 nM | < 1000 nM | – | –
16 | CCCC(F)(F)c1cc2c(cn1)C(C)(C)CN2C(=O)CN1C[C@@H](C)NC[C@@H]1CN1Cc2ncccc2C1=O [Example 68, 6-{[(2R,5R)-1-{2-[6-(1,1-Difluorobutyl)-3,3-dimethyl-1H,2H,3H-pyrrolo[3,2-c]pyridin-1-yl]-2-oxoethyl}-5-methylpiperazin-2-yl]methyl}-5H,6H,7H-pyrrolo[3,4-b]pyridin-5-one dihydrochloride] | 72% | 2.4 nM | < 1000 nM | – | –
17 | COC[C@@H]1CN(C[C@H]2CN[C@H](C)CN2CC(=O)N2CC(C)(C)c3ncc(Cc4ccc(F)cc4)cc32)C(=O)CO1 [Example 102, (6S)-4-{[(2R,5R)-1-(2-{6-[(4-Fluorophenyl)methyl]-3,3-dimethyl-1H,2H,3H-pyrrolo[3,2-b]pyridin-1-yl}-2-oxoethyl)-5-methylpiperazin-2-yl]methyl}-6-(methoxymethyl)morpholin-3-one dihydrochloride] | 51% | 6.9 nM | – | < 1000 nM | –
18 | C[C@@H]1CN(CC(=O)N2CC(C)(C)c3ncc(Cc4ccc(F)cc4F)cc32)[C@@H](CN2Cc3ccc(O)cc3C2=O)CN1 [Example 116, 2-{[(2R,5R)-1-(2-{6-[(2,4-Difluorophenyl)methyl]-3,3-dimethyl-1H,2H,3H-pyrrolo[3,2-b]pyridin-1-yl}-2-oxoethyl)-5-methylpiperazin-2-yl]methyl}-6-hydroxy-2,3-dihydro-1H-isoindol-1-one dihydrochloride] | 79% | – | – | – | –
19 | C[C@@H]1CN(CC(=O)N2CC(C)(C)c3nnc(Cc4ccc(F)cc4F)cc32)[C@@H](CN2Cc3c(O)cccc3C2=O)CN1 [Example 117, 2-{[(2R,5R)-1-(2-{3-[(2,4-Difluorophenyl)methyl]-7,7-dimethyl-5H,6H,7H-pyrrolo[3,2-c]pyridazin-5-yl}-2-oxoethyl)-5-methylpiperazin-2-yl]methyl}-4-hydroxy-2,3-dihydro-1H-isoindol-1-one dihydrochloride] | 78% | – | – | – | –
